How the values were obtained:
CT Rix7 = molecular target: T1, CT Rix7 (Thermochaetoides thermophila, UniProt G0RZG1, E303Q/E602Q); test: cryo-EM structure of the complex ([…] A); details: co-purified nucleotide, no ATP added; 5 mM MgCl2, pH 8; nucleotide-binding pockets of D1 and D2 AAA domains; ATP geometry restrained to reference structure
T1 construct: gene CTHT_0002840; full-length (NTD residues 1-192 not seen in map), codon-optimised, pET24b, C-terminal His6, expressed in E. coli BL21(DE3)*; asymmetric homohexamer
T1 sequence (G0RZG1 entry or part of it E303Q/E602Q): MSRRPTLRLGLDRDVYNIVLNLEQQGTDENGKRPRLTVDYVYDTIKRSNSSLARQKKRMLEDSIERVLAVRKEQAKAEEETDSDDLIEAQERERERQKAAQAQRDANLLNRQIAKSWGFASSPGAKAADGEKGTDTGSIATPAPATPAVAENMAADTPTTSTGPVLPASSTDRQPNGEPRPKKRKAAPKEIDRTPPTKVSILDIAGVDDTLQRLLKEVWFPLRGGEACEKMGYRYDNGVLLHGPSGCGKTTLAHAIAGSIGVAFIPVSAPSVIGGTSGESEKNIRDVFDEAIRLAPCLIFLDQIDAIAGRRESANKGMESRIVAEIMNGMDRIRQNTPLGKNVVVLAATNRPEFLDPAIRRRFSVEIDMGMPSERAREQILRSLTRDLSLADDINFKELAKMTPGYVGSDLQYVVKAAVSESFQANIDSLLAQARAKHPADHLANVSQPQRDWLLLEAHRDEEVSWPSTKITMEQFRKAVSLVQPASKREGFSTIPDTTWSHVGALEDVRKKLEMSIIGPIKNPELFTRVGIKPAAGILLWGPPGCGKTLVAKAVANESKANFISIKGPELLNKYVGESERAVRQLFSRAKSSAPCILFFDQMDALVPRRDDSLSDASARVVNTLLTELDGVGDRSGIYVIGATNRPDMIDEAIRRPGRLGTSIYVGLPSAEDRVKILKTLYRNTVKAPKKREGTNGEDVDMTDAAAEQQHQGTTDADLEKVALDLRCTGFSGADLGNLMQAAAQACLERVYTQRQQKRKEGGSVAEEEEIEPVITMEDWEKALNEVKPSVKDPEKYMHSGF

[1] = molecular target: Chaetomium thermophilum Rix7 double Walker B mutant (CT Rix7 E303Q/E602Q) (Chaetomium thermophilum); test: cryo-EM structure; CT Rix7 E303Q/E602Q at ~0.6 mg/ml after SEC in Buffer A (20 mM Tris-HCl pH 8, 150 mM NaCl, 5 mM MgCl2, 0.5 mM DTT); no ATP and no substrate added; no symmetry imposed (C1); 4.5 Å

stoichiometry N [1] | Compound | cryo-EM structure of the complex (4.5 A) (CT Rix7)
 | Nc1ncnc2c1ncn2[C@@H]1O[C@H](COP(=O)(O)OP(=O)(O)OP(=O)(O)O)[C@@H](O)[C@H]1O [ATP] | In the D1 AAA domain, ATP is present in the nucleotide pockets of all six protomers
6 | Chaetomium thermophilum Rix7 double Walker B mutant (CT Rix7 E303Q/E602Q) (enzyme) | 

Source: article PMC6355894, “Cryo-EM structure of the essential ribosome assembly AAA-ATPase Rix7” (Nature Communications, 2019)
